From patent US5219998A, “Yeast-derived epidermal growth factor” (priority 1991, dated 1993)

Experiments:
[1] = target: human EGF receptor (Homo sapiens, UniProt P00533); assay: Binding to EGF receptor of A431 cells (125I-mEGF competition); details: read-out: binding constant (KD), same experiment
[2] = tested on: A431 cells; assay: Relative stability at 55° C. measured by stimulation of A431 cellular respiration; assay type: cell-based, human; details: 100 ng of mEGF
Experimental: Referring to FIG. 4, a graph is shown summarizing the results obtained for yEGF(Fraction I) and mEGF.
In preparation for the titration the results of which are shown in FIG. 4, twenty microliter samples of either 100 ng of mEGF or 500 ug of yEGF(Fraction I) were incubated for various times at 55° C. The samples were removed and assayed for their ability to stimulate A431 cell respiration. The procedures for measuring respiration were the same as those which are summarized in relationship to the work leading to FIG. 2.

[3] = tested on: anti-mEGF antibody; assay: Anti-murine EGF Elisa titration; assay type: binding, goat; details: Elisa absorbance; significant at <0.1; standard error 0.019
Experimental: One ml of a 100 mg/ml sample of a yeast extract yEGF(Fraction I) was diluted to 10% with trichloroacetic acid (Fisher Scientific no. A322-100) and allowed to stand for 30 minutes on ice. Precipitated material was collected on a centrifuge at 10,000×g for 10 minutes, and washed twice with 95% ethanol. The insoluble material was dissolved in 1 ml of water and dispersed in a 96 well plate by serial dilutions. Unbound antigen was removed after 3 hours at 37° C. and the plate was incubated with monospecific anti-mEGF antibody overnight at 4° C. Excess antibody was removed by washing the plates and a second antibody conjugated to alkaline phosphatase was added to each well. After 3 hours at 37° C., the excess second antibody was removed and the amount of alkaline phosphatase per well was determined. The Elisa test was dependent on the amount of y-EGF present. In preparation of the materials for the titration shown in the graph of FIG. 6, one hundred microliters of PBS was added to each well of a 96 well microtiter plate. Twenty five microliters of 10 mg/ml yEGF was added to the second well of each row. After mixing, 25 microliters was transferred to the third well in the row. The process was repeated until all the wells had dilutions of yEGF. The antigen was allowed to bind at 37° C. for 3 hours and the plate was washed 3 times with PBS containing 0.05% Tween-20(TPBS). […]

[4] = tested on: A431 cells; assay: A431 cellular respiration assay (Clark oxygen electrode); assay type: cell-based, human
Experimental: In preparing to carry out the titration the results of which are shown in FIG. 2, 10 cm dishes of A431 cells were washed twice and incubated in 5 ml of DME containing 0.1% bovine serum albumin for 1 hour in a CO2 incubator. The cells were collected by trypsinization and resuspended at 2-3×10^6 cells per ml in DME containing 0.1% bovine serum albumin. One ml of the cell suspension was transferred to a glass tube that as maintained at 37° C. with circulating water. The cells were allowed to equilibrate at temperature for 5 minutes, and a Clark oxygen electrode was inserted into the vessel. Potentiometric readings were continuously taken from the electrode using a YSI oxygraph that was attached to a recorder. […] Respiration was allowed to continue until an accurate rate could be observed on the recorder. The rates of respiration were converted to microliters of oxygen per hour per 2×10^6 cells.
Similarly, the yEGF fractions were titered by measuring their immediate effect on the consumption of oxygen by A431 cells.
The Experimental Over Control (EXP/CON) is the rate of respiration observed with yEGF(Fraction I) divided by the basal respiration rate for that sample.

mEGF: pure murine EGF (Collaborative Research no 40001)
Kd [1]: 2.42 nM
time to loss of ability to stimulate respiration [2]: ≤ 10 min
regression coefficient: one ug equals 0.0518(ABS)--0.0223 [3]: 0.0518
% Stimulation of A431 respiration ([4]; 6.5 ug/ml a-mEGF): 1.5%
% Stimulation of A431 respiration ([4]; 10 ug/ml murine IGG): 91.8%
% Stimulation of A431 respiration ([4]; 0.1mM DTT): 44.8%
effect of Dithiotrietol (DTT) on activity ([4]; DTT): enhanced
slope of regression Z=1.512 ug/ml EGF+1.03 ([4]; Z = respiration ratio to control, concentration in ug/ml, intercept 1.03, 98% confidence): 1.512
activity after boiling ([4]; boiled): denatured
% Stimulation of A431 respiration ([4]; no pretreatment, 0.5 ug/ml mEGF or 1.0 mg/ml yEGF (Fraction I)): 17.8%
% Stimulation of A431 respiration ([4]; pretreatment 30 min 2 ug/ml ProK): 1.0%
% Stimulation of A431 respiration ([4]; pretreatment 30 min 2 ug/ml RNase A): 17.6%
% Stimulation of A431 respiration ([4]; pretreatment 30 min 2ug/ml trypsin): 1%
% Stimulation of A431 respiration ([4]; pretreatment 30 min 10 ug/ml DNasel): 18.2%
% Stimulation of A431 respiration ([4]; pretreatment Boiling): 2.1%
